Values joined by “and” are separate entries in the source; they are usually repeats but may differ in a detail not shown here. Equal entries are not always repeated. Where two headings read alike, the source gives them in different places.
What was measured:
[1] = test system: Plasmodium falciparum Dd2 asexual blood stage parasites; experiment: microbe, parasite or virus in culture; design: species or system Plasmodium falciparum Dd2 in human erythrocytes; single determination (one 11-point concentration-response curve); conditions: Plasmodium falciparum, DD2, Erythrocyte, 72 h; read-out: AC50
[2] = in vitro; conditions: human, hepg2 cells
[3] = test system: HepG2; conditions: human, hepg2 cells, 48 h
[4] = in vitro; conditions: human
[5] = test system: luciferase-expressing P. berghei liver stage parasites in HepG2 cells; experiment: Inhibition of liver-stage development assay (ILSDA), Method 2 (WRAIR, 96-well); type: cell-based, Plasmodium berghei; conditions: for AC50: Plasmodium berghei, HepG2, Method 2
[6] = test system: P. berghei-ANKA-GFP-LucCON liver stage parasites in HepG2-A16-CD81EGFP cells; experiment: P. berghei liver stage Pb-Luc assay, Method 1 (UCSD, 1536-well); type: cell-based, Plasmodium berghei; conditions: for activity at 1 µM / activity at 3 µM: 48 h; for Max Resp (signal direction of the dose response): Decrease = decreasing P. berghei viability with dose, Increase = increasing signal, Inactive = no dose response
[7] = test system: HepG2-A16-CD81EGFP cells
[8] = test system: T1, Plasmodium falciparum Dd2-attB (parental line), asexual blood stages; experiment: microbe, parasite or virus in culture; design: replicate k of 3 (each line is one of three independent assays; the three lines of one compound and parasite line follow each other); conditions: n = 1
T1 construct: Dd2-attB, the isogenic parental line
In short: (§1)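 Statistics: two-sided Student's t-test between parental and transgenic values, from three independent assays. The transgene encodes a fumarate-dependent DHODH from yeast, independent of the parasite mETC.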

[9] = test system: T2, Plasmodium falciparum Dd2-attB-ScDHODH (transgenic line expressing yeast DHODH), asexual blood stages; experiment: organism not typed; design: replicate k of 3 (each line is one of three independent assays; the three lines of one compound and parasite line follow each other); conditions: 72 h, n = 1
T2 construct: Dd2-attB-ScDHODH, the transgenic line that expresses yeast DHODH
In short: as §1

[10] = HepG2-A16-CD81EGFP cells, uninfected
[11] = Method 2, Decrease = decreasing P. berghei viability with dose, Increase = increasing signal, Inactive = no dose response
[12] = Hill fit, 50% of maximum activity response, read-out: AC50
[13] = log10 of molar AC50 from Hill fit, read-out: Log AC50 (converted)
[14] = Plasmodium berghei, 1 uM (compounds provided at 10 mM), average of 2 wells on a 1536 well plate, column 11, read-out: Pb-Luc (P. berghei liver stage), % of control, lower concentration, first repeat
[15] = Plasmodium berghei, 1 uM (compounds provided at 10 mM), average of 2 wells on a 1536 well plate, column 12, read-out: Pb-Luc (P. berghei liver stage), % of control, lower concentration, second repeat
[16] = Plasmodium berghei, 3 uM (compounds provided at 10 mM), average of 2 wells on a 1536 well plate, column 8, read-out: Pb-Luc (P. berghei liver stage), % of control, higher concentration, first repeat
[17] = Plasmodium berghei, 3 uM (compounds provided at 10 mM), average of 2 wells on a 1536 well plate, column 9, read-out: Pb-Luc (P. berghei liver stage), % of control, higher concentration, second repeat
[18] = Method 1, log10 of molar AC50 from Hill fit
[19] = Plasmodium berghei, Method 1, log10 of molar AC50 from Hill fit, read-out: Log AC50 (converted)
[20] = Plasmodium berghei, nominal 1 uM (10 mM stock), […] for 15 mM, 1.2 uM for 12 mM, 2 uM for 20 mM stock, average of 2 wells, 1536-well plate, repeat 1, read-out: Pb-Luc signal, 1 uM, repeat 1
[21] = Plasmodium berghei, nominal 1 uM (10 mM stock), […] for 15 mM, 1.2 uM for 12 mM, 2 uM for 20 mM stock, average of 2 wells, 1536-well plate, repeat 2, read-out: Pb-Luc signal, 1 uM, repeat 2
[22] = Plasmodium berghei, nominal 1 uM (10 mM stock), […] for 15 mM, 1.2 uM for 12 mM, 2 uM for 20 mM stock, average of 2 wells, 1536-well plate, repeat 3, read-out: Pb-Luc signal, 1 uM, repeat 3
[23] = Plasmodium berghei, nominal 3 uM (10 mM stock), 4.5 uM for 15 mM, 3.6 uM for 12 mM, 6 uM for 20 mM stock, average of 2 wells, 1536-well plate, repeat 1, read-out: Pb-Luc signal, 3 uM, repeat 1
[24] = Plasmodium berghei, nominal 3 uM (10 mM stock), 4.5 uM for 15 mM, 3.6 uM for 12 mM, 6 uM for 20 mM stock, average of 2 wells, 1536-well plate, repeat 2, read-out: Pb-Luc signal, 3 uM, repeat 2
[25] = Plasmodium berghei, nominal 3 uM (10 mM stock), 4.5 uM for 15 mM, 3.6 uM for 12 mM, 6 uM for 20 mM stock, average of 2 wells, 1536-well plate, repeat 3, read-out: Pb-Luc signal, 3 uM, repeat 3
[26] = nominal 1 uM (10 mM stock), […] for 15 mM, 1.2 uM for 12 mM, 2 uM for 20 mM stock, average of 2 wells, repeat 2
[27] = nominal 3 uM (10 mM stock), 4.5 uM for 15 mM, 3.6 uM for 12 mM, 6 uM for 20 mM stock, average of 2 wells, repeat 2

| Structure (SMILES) | AC50 [1] | CC50 at 48 h [2] | Log AC50 (M) [3] | viability at 48 h, 1 µM [4, 10] | viability at 48 h, 3 µM [4, 10] | Max Resp (signal direction of the dose response) [5, 11] | activity at 1 µM [6, 20] | activity at 1 µM [6, 21] | activity at 1 µM [6, 22] | activity at 3 µM [6, 23] | activity at 3 µM [6, 24] | activity at 3 µM [6, 25] | HepG2 viability signal, 1 uM, repeat 2 [7, 26] | HepG2 viability signal, 3 uM, repeat 2 [7, 27] | also measured |
| --- | --- | --- | --- | --- | --- | --- | --- | --- | --- | --- | --- | --- | --- | --- | --- |
| O=C1c2ccccc2C2=Nc3ccccc3SC(c3ccc(Cl)cc3)C12 (stereo not shown) [MLS000566883-01] | 2.66 µM | 43.2 µM | -4.3643 M | 90% | 85% | Decrease |  |  |  |  |  |  |  |  | AC50 [5, 12]: 3.98 µM; AC50 [5, 13]: 3.98 µM |
| Cc1cccc(Nc2nc(NCc3ccco3)c3ccccc3n2)c1 [MLS000662793-01] | 4.73 µM | 43.2 µM | -4.3643 M | 89% | 74% | Inactive |  |  |  |  |  |  |  |  | activity at 1 µM [6, 14]: 23%; activity at 1 µM [6, 15]: 19%; activity at 3 µM [6, 16]: 13%; activity at 3 µM [6, 17]: 11% |
| CCO.Nc1nc(N)c2cc(Sc3ccc4ccccc4c3)ccc2n1 [MLS000757047-01] | 1.33 µM | 27.3 µM | -4.5643 M | 103% | 93% | Decrease |  |  |  |  |  |  |  |  | activity at 1 µM [6, 14]: 12%; activity at 1 µM [6, 15]: 12%; activity at 3 µM [6, 16]: 11%; activity at 3 µM [6, 17]: 10%; AC50 [5, 12]: 2.24 µM; AC50 [5, 13]: 2.24 µM; HepG2 viability, % of control, higher concentration, second repeat [7]: 96%; HepG2 viability, % of control, lower concentration, second repeat [7]: 99% |
| c1ccc(Nc2nc(NCc3ccco3)c3ccccc3n2)cc1 [MLS000767881-01] | 1.68 µM | 43.2 µM | -4.3643 M | 94% | 80% | Decrease |  |  |  |  |  |  |  |  | AC50 [5, 12]: 2.24 µM; AC50 [5, 13]: 2.24 µM |
| COc1ccc(CCN2CCC(Nc3nc4ccccc4n3Cc3ccc(F)cc3)CC2)cc1 [NCGC00016913-08] | 2.37 µM | 34.3 µM | -4.4643 M |  |  |  |  |  |  |  |  |  |  |  | AC50 [6]: 3.16 µM; Max Resp (signal direction of the dose response) ([6]; Method 1): Decrease; Log AC50 (M) [6, 18]: -5.500 M; AC50 [6, 19]: 2.82 µM; Max Resp (signal direction of the dose response) [5]: Inactive |
| N=c1n(CCN2CCCCC2)c2ccccc2n1CC(O)COc1ccc(Cl)cc1Cl (stereo not shown) [NCGC00100256-01] | 4.22 µM | 30.6 µM | -4.5143 M | 103% | 102% |  | 94.7% | 93.8% | 119% | 65.4% | 71% | 72.8% | 103.32% | 101.25% |  |
| CCCCCn1c(=N)n(CC(O)COc2cccc(C)c2)c2ccccc21 (stereo not shown) [NCGC00101833-01] | 2.11 µM | 43.2 µM | -4.3643 M | 98.8% | 94.8% |  | 93.7% | 90.1% | 79.6% | 67.5% | 71% | 96.1% | 100.99% | 100.64% |  |
| CN(C)CCCNc1cc(N2CCN(C3CCCCC3)CC2)c2noc3c2c1C(=O)c1ccccc1-3 [NCGC00111069-01] | 1.33 µM | 38.5 µM | -4.4143 M | 96.3% | 93.8% |  | 66% | 110% | 109% | 57.2% | 71.6% | 75.6% | 102.79% | 99.71% |  |
| Oc1cc(NCc2ccccc2)cc2cccnc12 [NCGC00183793-01] | 2.99 µM | 43.2 µM | -4.3643 M | 91% | 52% |  |  |  |  |  |  |  |  |  | Individual replicates / Log AC50 (M) ([8]; 72 h): -5.3986 Log AC50 (M) and -5.2986 Log AC50 (M); AC50 ([8]; Plasmodium falciparum, DD2, 72 h, read-out: Individual replicates / Log AC50 (M) (converted)): 3.56e-06 M; Individual replicates / Log AC50 (M) [9]: -5.2486 Log AC50 (M); AC50 ([9]; read-out: Individual replicates / Log AC50 (converted)): 4.48 µM |
| CN1CCN(c2ccc3ncc(Nc4ccccc4-c4ccccc4)n3n2)CC1 [NCGC00412547-01] | 0.863 µM | 44.4 µM | -4.3528 M | 96% | 97.1% |  | 101% | 104% | 100% | 50.6% | 88.8% | 92.9% | 97.22% | 96.99% |  |
| COc1ccccc1Nc1cnc2ccc(-c3ccc(OC)c(OC)c3)nn12 [NCGC00412573-01] | 1.53 µM | 44.4 µM | -4.3528 M | 108% | 73.1% |  | 7.11% | 51.2% | 2.63% | 1.18% | 32.2% | 43.3% | 106.68% | 92.36% | Max Resp (signal direction of the dose response) ([6]; Method 1): Decrease; AC50 ([6]; Method 1, Hill fit, 50% of maximum activity response, read-out: AC50): 0.447 µM; Log AC50 (M) [6, 18]: -6.350 M; AC50 ([6]; Plasmodium berghei, Method 1, Hill fit, 50% of maximum activity response, read-out: AC50): 0.355 µM; AC50 [6, 19]: 0.355 µM; Activity direction (Decrease / Inactive) ([5]; P. berghei liver stage, Method 2, dose response): Inactive |
| COc1ccc(CN2CCCn3nc(C)c(-c4ccccc4Oc4ccccc4)c32)cc1O [NCGC00420291-01] | 9.44 µM | 43.2 µM | -4.3643 M | 101% | 105% |  | 77.1% | 79.5% | 133% | 83.6% | 59.5% | 87.2% | 99.76% | 103.00% |  |
| O=C(Nc1ccccc1)OC[C@H]1C[C@@H]2CCN1C[C@@H]2c1cc(C2CCCC2)nc(-c2ccncc2)n1 [NCGC00421344-01] | 1.68 µM | 34.3 µM | -4.4643 M |  |  |  | 68.5% | 91.8% | 72.8% | 27.1% | 71.6% | 77.7% |  |  | viability at 48 h, 1 µM [4]: 101%; viability at 48 h, 3 µM [4]: 105%; HepG2 viability signal, 1 uM, repeat 2 ([7]; human, 48 h, 1 µM): 103.60%; HepG2 viability signal, 3 uM, repeat 2 ([7]; human, 48 h, 3 µM): 105.28% |

Reference: publication PMC7822874, “Chemoprotective antimalarials identified through quantitative high-throughput screening of Plasmodium blood and liver stage parasites” (Scientific Reports, 2021)
